Here are results for one molecule from ChEMBL document CHEMBL2169877, “Antagonists of 5-HT₆ receptors. Substituted 3-(phenylsulfonyl)pyrazolo[1,5-a]pyrido[3,4-e]pyrimidines and 3-(phenylsulfonyl)pyrazolo[1,5-a]pyrido[4,3-d]pyrimidines-Synthesis and 'structure-activity' relationship” (Bioorg Med Chem Lett, 2012).

Assay [1] concerns the target Adenosine receptor A2a (Homo sapiens) (UniProt P29274). Briefly: Binding affinity to adenosine A2A receptor at 1 uM by radioligand displacement assay. On the technique in general: In a radioligand displacement assay an active substance lowers the binding of a labelled ligand.
For assay [2], the target named is Beta-1 adrenergic receptor (Homo sapiens) (UniProt P08588). In words: Binding affinity to beta1 adrenergic receptor at 1 uM by radioligand displacement assay.
Chain of Beta-1 adrenergic receptor (Homo sapiens) (P08588 whole entry, looked up): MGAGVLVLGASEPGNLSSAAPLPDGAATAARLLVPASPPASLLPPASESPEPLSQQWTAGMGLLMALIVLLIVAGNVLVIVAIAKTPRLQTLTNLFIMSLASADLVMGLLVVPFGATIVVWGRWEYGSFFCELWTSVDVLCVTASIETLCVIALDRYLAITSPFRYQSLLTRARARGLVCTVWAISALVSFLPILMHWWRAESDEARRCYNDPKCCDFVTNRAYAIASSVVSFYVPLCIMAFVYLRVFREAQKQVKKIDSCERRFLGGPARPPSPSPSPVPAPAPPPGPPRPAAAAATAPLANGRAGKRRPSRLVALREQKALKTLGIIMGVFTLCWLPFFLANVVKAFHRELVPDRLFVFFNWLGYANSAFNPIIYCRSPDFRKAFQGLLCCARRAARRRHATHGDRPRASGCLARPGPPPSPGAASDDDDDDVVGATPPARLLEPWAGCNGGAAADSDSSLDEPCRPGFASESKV
A short description of assay [3]: Binding affinity to GABA-B receptor at 1 uM by radioligand displacement assay.
Assay [4] is described as follows: Binding affinity to GABA(A) receptor TBOB binding site at 1 uM by radioligand displacement assay.
Assay [5] is described as follows: Binding affinity to PDE3 at 1 uM by radioligand displacement assay.
Assay [6] concerns the target T1, 5-hydroxytryptamine receptor 2B (Homo sapiens, UniProt P41595). In words: Displacement of [3H]lysergic acid diethylamide from human recombinant 5HT2B receptor at 1 uM.
Assay [7] addresses Sodium-dependent dopamine transporter (Homo sapiens) (UniProt Q01959). In words: Binding affinity to DAT at 1 uM by radioligand displacement assay.
Assay [8] has as its target 5-hydroxytryptamine receptor 6 (Homo sapiens, UniProt P50406). In words: Displacement of [3H]lysergic acid diethylamide from human recombinant 5HT6 receptor expressed in HeLa cells after 120 mins. The format is cell-based.
The nature of assay [9]: Binding affinity to GABA(A) receptor RO-15-1788 binding site at 1 uM by radioligand displacement assay.
Assay [10] deals with Beta-2 adrenergic receptor (Homo sapiens) (UniProt P07550). Briefly: Binding affinity to beta2 adrenergic receptor at 1 uM by radioligand displacement assay.
Assay [11] in a line: Binding affinity to adenosine transporter at 1 uM by radioligand displacement assay.
Assay [12] addresses Nitric oxide synthase 1 (Homo sapiens) (UniProt P29475). Briefly: Binding affinity to nNOS at 1 uM by radioligand displacement assay.
Assay [13] has as its target T1, 5-hydroxytryptamine receptor 2B. In words: Antagonist activity at human recombinant 5HT2B receptor expressed in HEK293 cells assessed as inhibition of alphamethyl5HT-induced intracellular calcium mobilization by Fluo4-based staining method. The class given is functional, cell-based. Particulars: hek293. For orientation: Calcium flux is commonly read through the fluorescence of an indicator in the cells.

The target of assay [14] is Muscarinic acetylcholine receptor M1 (Homo sapiens) (UniProt P11229). In words: Binding affinity to M1 receptor at 1 uM by radioligand displacement assay.
Chain of Muscarinic acetylcholine receptor M1 (Homo sapiens) (P11229 whole entry): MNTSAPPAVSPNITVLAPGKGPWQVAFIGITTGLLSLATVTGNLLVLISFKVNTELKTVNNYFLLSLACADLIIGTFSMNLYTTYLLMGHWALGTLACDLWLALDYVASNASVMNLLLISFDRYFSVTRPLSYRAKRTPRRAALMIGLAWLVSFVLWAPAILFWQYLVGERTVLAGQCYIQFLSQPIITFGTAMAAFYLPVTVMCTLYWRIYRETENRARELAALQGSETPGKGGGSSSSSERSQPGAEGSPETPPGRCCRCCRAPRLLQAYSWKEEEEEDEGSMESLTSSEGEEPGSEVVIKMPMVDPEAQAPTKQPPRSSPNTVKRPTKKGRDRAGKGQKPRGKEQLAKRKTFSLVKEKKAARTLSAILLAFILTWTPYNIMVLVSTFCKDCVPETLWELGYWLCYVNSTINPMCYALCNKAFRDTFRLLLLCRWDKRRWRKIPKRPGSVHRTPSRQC
In assay [15] the target is Alpha-2B adrenergic receptor (Homo sapiens) (UniProt P18089). Briefly: Binding affinity to alpha2B adrenergic receptor at 1 uM by radioligand displacement assay.
Chain of Alpha-2B adrenergic receptor (Homo sapiens) (P18089 whole entry): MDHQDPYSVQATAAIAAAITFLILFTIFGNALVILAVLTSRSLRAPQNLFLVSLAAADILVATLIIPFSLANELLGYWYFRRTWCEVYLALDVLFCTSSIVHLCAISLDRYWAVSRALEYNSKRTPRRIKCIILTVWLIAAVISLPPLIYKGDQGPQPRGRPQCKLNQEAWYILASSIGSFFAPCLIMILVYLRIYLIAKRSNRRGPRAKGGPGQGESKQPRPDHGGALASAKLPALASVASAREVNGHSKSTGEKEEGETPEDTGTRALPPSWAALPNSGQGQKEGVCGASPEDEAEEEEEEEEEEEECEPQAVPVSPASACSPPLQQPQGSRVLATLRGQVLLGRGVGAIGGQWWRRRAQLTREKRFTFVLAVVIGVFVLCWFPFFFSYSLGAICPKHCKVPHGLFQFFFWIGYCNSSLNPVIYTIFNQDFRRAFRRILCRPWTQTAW
Assay [16] has as its target Histamine H1 receptor (Homo sapiens) (UniProt P35367). In words: Binding affinity to histamine receptor H1 at 1 uM by radioligand displacement assay.
The nature of assay [17]: Binding affinity to central-type GABA(A) receptor muscimol binding site at 1 uM by radioligand displacement assay.
Assay [18] addresses 5-hydroxytryptamine receptor 1B (Homo sapiens) (UniProt P28222). In words: Binding affinity to 5HT1B receptor at 1 uM by radioligand displacement assay.
Assay [19] can be described thus: Binding affinity to L-type calcium channel phenylalkylamine binding site at 1 uM by radioligand displacement assay.
Assay [20] concerns the target Alpha-2A adrenergic receptor (Homo sapiens) (UniProt P08913). Briefly: Binding affinity to alpha2A adrenergic receptor at 1 uM by radioligand displacement assay.
Assay [21] deals with Histamine H3 receptor (Homo sapiens) (UniProt Q9Y5N1). Briefly: Binding affinity to histamine receptor H3 at 1 uM by radioligand displacement assay.
Chain of Histamine H3 receptor (Homo sapiens) (Q9Y5N1 whole entry): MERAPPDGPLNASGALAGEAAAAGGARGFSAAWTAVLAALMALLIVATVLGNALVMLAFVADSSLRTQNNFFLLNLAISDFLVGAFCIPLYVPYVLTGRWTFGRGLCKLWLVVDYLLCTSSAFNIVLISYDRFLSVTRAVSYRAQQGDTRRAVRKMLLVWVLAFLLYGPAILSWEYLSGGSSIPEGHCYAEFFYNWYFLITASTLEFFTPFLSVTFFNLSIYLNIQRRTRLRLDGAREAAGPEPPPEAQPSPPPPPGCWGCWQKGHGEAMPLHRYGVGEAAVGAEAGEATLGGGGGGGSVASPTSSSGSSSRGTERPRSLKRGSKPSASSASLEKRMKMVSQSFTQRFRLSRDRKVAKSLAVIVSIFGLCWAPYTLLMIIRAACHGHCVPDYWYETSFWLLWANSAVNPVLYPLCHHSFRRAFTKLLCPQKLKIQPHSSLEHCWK
Assay [22] is described as follows: Binding affinity to P2Y receptor at 1 uM by radioligand displacement assay.
Assay [23] has as its target Nitric oxide synthase, inducible (Homo sapiens) (UniProt P35228). Briefly: Binding affinity to iNOS at 1 uM by radioligand displacement assay.

The structures appear in SMILES notation. Calls of active or inactive are those of the source. The rule behind the calls is not given here.

T1 sequence (P41595 whole entry): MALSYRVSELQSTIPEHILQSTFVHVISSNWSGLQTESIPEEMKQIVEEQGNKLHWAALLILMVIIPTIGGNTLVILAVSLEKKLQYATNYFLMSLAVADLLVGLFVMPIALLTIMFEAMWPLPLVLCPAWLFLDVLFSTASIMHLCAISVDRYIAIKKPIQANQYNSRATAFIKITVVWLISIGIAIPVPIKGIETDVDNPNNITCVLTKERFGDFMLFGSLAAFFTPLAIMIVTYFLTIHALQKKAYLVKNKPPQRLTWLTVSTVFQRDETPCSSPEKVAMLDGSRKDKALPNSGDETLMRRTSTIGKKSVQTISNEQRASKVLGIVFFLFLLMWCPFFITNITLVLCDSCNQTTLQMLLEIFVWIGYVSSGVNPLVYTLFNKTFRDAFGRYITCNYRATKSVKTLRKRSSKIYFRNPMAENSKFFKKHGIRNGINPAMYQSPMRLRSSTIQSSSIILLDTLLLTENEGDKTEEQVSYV
Chain of Histamine H1 receptor (Homo sapiens) (P35367 whole entry): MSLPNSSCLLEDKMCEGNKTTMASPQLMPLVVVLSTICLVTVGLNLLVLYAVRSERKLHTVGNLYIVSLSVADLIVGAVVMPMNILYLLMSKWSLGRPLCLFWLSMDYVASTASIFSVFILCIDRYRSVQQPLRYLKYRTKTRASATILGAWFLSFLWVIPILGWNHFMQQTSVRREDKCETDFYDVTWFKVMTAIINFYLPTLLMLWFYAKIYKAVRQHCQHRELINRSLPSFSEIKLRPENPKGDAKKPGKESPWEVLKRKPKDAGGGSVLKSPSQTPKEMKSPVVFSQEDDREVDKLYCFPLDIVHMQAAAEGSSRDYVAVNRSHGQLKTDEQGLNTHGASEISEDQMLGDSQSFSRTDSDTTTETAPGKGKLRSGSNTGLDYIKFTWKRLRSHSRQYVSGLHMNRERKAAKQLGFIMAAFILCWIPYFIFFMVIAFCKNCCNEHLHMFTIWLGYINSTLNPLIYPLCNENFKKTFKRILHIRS
Chain of Alpha-2A adrenergic receptor (Homo sapiens) (P08913 whole entry): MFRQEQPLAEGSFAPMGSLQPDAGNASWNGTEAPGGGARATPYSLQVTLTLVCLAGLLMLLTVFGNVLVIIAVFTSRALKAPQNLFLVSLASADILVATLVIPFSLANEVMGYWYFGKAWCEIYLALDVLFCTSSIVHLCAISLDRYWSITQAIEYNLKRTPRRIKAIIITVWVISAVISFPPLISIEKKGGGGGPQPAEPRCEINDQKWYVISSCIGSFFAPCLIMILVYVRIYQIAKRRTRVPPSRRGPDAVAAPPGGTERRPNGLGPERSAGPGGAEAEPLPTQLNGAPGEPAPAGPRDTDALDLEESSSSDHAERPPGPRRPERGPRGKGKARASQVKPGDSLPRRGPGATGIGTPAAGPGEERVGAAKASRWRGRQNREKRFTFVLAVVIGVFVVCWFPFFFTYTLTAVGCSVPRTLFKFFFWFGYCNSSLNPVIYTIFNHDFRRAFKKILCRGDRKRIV
Chain of Adenosine receptor A2a (Homo sapiens) (P29274 whole entry): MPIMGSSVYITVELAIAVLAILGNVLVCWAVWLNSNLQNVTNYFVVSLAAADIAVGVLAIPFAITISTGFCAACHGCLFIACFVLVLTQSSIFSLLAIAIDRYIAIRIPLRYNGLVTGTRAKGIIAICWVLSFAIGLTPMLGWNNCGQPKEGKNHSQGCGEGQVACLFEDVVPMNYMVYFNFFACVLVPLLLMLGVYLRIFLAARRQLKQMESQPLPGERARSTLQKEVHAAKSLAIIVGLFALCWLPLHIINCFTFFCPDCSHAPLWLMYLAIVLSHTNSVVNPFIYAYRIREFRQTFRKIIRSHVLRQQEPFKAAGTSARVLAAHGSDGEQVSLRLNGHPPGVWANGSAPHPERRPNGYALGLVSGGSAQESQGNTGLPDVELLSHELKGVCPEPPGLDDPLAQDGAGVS
Chain of Sodium-dependent dopamine transporter (Homo sapiens) (Q01959 whole entry): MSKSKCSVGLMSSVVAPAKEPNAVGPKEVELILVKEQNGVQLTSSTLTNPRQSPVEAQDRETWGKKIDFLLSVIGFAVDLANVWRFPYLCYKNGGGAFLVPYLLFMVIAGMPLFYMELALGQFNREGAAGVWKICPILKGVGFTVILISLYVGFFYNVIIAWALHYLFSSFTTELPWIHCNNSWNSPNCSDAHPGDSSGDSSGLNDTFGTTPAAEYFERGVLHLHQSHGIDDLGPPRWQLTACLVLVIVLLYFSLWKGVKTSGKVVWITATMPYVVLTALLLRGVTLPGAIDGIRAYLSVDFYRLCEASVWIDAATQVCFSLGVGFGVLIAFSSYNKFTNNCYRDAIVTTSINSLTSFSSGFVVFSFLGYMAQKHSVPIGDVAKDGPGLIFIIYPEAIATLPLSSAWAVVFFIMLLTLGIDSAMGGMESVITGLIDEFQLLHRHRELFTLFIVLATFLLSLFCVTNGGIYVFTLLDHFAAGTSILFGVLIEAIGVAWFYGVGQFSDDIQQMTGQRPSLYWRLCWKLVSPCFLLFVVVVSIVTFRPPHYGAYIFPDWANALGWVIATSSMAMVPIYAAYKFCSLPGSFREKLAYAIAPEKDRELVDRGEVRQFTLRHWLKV
Chain of 5-hydroxytryptamine receptor 6 (P50406 whole entry): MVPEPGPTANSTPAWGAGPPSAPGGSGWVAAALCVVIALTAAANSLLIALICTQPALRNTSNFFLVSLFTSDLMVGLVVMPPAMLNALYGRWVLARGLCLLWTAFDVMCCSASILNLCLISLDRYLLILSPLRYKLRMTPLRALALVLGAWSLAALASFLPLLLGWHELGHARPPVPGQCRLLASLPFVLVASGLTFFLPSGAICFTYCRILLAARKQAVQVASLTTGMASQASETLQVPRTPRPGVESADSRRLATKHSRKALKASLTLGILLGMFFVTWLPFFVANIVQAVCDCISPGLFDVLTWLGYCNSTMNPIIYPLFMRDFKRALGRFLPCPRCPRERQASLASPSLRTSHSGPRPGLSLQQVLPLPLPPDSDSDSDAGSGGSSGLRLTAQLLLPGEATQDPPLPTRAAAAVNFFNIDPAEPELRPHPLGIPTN

`CNc1nn2cc3c(nc2c1S(=O)(=O)c1ccccc1)CCN(C)C3`: the result in [1], in assay [2], in [3], in assay [4], in [5] and in assay [6] was inactive. Moreover, the outcome in assay [7], in assay [9], in assay [10], in assay [11], in [12] and in assay [14] was inactive. Also, the result in assay [15], in [16], in [17], in assay [18], in assay [19] and in assay [20] was inactive. Further, the outcome in assay [21], in assay [22] and in assay [23] was inactive. For the same molecule, the Ki in [8] turned out to be 0.82 nM. For the same molecule, in [13], the IC50 result was “Not Active”.

In general, Ki refers to a dissociation constant, usually derived from enzyme kinetics or from competition with a known ligand.
